Results published in PMC10399481, “Discovery and biological evaluation of novel CARM1/HDAC2 dual-targeting inhibitors with anti-prostate cancer agents” (Journal of Enzyme Inhibition and Medicinal Chemistry, 2023).
Entries after “also recorded” stand apart in the source; their conditions may differ. Read-outs that look alike come from different tables or passages of the source.

Legend:
[1] = test system: DU145 xenograft tumour; experiment: In vivo anticancer activity, DU145 xenograft; set-up: species or system BALB/c nude mice; conditions: 5, 10 and 20 mg/kg i.p., every four days, six times; dose-dependent
Experimental: The method of in vivo assay was described previously. We bought healthy female BALB/c nude mice from the animal experiment centre of Yangzhou University. All experiments involving animals were approved by the Animal Ethics Committee of China Pharmaceutical University. Mice were subcutaneously injected on the right flank with DU145 cells (200 µl, 1 × 10^7 cells). When tumour sizes reached 80–100 mm^3, mice were divided into four groups at random. Every four days for a total of six times, each group was injected intraperitoneally with the vehicle, CH-1 (5 mg/kg), CH-1 (10 mg/kg), and CH-1 (20 mg/kg). Tumour volume was measured every four days and calculated by the formula (c × c × d)/2 (c, the smallest diameter; d, the largest diameter).

[2] = test system: multiple prostate-related tumour cells (DU145, RM-1, LAPC4, 22RV1, PC-3); experiment: MTT cell growth assay, prostate cancer cell panel; conditions: Homo sapiens, read-out: anti-proliferative IC50 against prostate-related tumour cells
Experimental: (§2) The American Type Culture Collection (ATCC) (Manassas, VA, USA) provided the human cancer cell lines including DU145, RM-1, LAPC4, 22RV1, and PC-3, which was then cultured in Dulbecco’s modified Eagle’s medium (DMEM) with 1% penicillin-streptomycin and 10% foetal bovine serum (FBS) in a humidified environment with 5% CO2 at 37 °C.
(§3) Based on the experimental method published previously, cell lines were prepared in cell suspension (5 × 10^4 cells/mL) and seeded into a 96-well plate[59].

[3] = test system: 22RV1 cells; experiment: MTT cell growth assay, 22RV1; conditions: Homo sapiens, 22Rv1, 72 h, read-out: 22RV1 cell proliferation IC50
Experimental: as §2, §3

[4] = test system: RM-1 cells; experiment: MTT cell growth assay, RM-1; conditions: RM1, 72 h, read-out: RM-1 cell proliferation IC50
Experimental: as §2, §3

[5] = test system: DU145 cells; experiment: MTT cell growth assay, DU145; conditions: for inhibition at 1 µM: DU-145, read-out: DU145 (% inhibition rate, 1 μM)
Experimental: as §2, §3

[6] = test system: LAPC4 cells; experiment: MTT cell growth assay, LAPC4; conditions: Homo sapiens, LAPC4, 72 h, read-out: LAPC4 cell proliferation IC50
Experimental: as §2, §3

[7] = biological target: T1, CARM1 (Homo sapiens, UniProt Q86X55); experiment: In vitro CARM1 inhibition assay (3H-SAM, Flashplate); assay type: biochemical; conditions: 30 min preincubation, pH 7.5
T1 construct: purchased Abcam (Cambridge, MA, USA)
T1 sequence (Q86X55 1-608): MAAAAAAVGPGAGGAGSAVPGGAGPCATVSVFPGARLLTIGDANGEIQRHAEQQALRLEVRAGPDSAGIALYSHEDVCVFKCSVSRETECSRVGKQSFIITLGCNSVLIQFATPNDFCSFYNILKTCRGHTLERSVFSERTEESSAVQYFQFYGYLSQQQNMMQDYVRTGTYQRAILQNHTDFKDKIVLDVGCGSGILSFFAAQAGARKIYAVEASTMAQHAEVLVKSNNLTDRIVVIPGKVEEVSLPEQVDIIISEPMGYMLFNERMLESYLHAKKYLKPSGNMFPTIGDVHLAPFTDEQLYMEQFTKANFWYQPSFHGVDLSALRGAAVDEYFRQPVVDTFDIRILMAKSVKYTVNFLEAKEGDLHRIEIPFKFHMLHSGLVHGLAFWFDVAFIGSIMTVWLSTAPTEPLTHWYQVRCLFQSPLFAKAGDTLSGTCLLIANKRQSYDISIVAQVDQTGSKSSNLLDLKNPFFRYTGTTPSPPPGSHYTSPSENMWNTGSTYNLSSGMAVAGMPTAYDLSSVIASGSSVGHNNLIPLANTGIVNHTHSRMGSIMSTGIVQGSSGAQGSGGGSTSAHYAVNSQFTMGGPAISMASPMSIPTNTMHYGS
Experimental: (§1) Hit compounds were purchased from WuXi AppTec.
In vitro CARM1 inhibition assays were conducted as previously described. Before the reaction began, CARM1 was preincubated with compounds for 30 min at room temperature. […] Assay was performed at the condition of pH 7.5. The assay was quenched through the addition of 300 µM unlabelled SAM. The quantity of ^3H-labeled peptide produced was measured by Flashplate on a Topcount reader.

[8] = test system: PC-3 cells; experiment: MTT cell growth assay, PC-3; conditions: Homo sapiens, PC-3, 72 h, read-out: PC-3 cell proliferation IC50
Experimental: The American Type Culture Collection (ATCC) (Manassas, VA, USA) provided the human cancer cell lines including DU145, RM-1, LAPC4, 22RV1, and PC-3, which was then cultured in Dulbecco’s modified Eagle’s medium (DMEM) with 1% penicillin-streptomycin and 10% foetal bovine serum (FBS) in a humidified environment with 5% CO2 at 37 °C. […] Hit compounds were purchased from WuXi AppTec.
as §3

[9] = biological target: T2, HDAC2 (Homo sapiens, UniProt Q92769); experiment: In vitro HDAC2 inhibition assay (Boc-Lys(acetyl)-AMC fluorogenic); assay type: biochemical
T2 construct: purchased Abcam (Cambridge, MA, USA)
Experimental: as §1
In vitro HDAC2 inhibition assays were performed as previously stated. Briefly, 50 µL of various concentrations of tested compounds were mixed with 10 µL of HDAC2 enzyme solution. After 5 min of 37 °C incubation, 40 µL of the luorogenic substrate Boc-Lys(acetyl)-AMC was added. The mixture was incubated at 37 °C for 30 min and stopped by adding 100 µL of developer containing trypsin and TSA. Then, fluorescence intensity was determined 20 min later at excitation and emission wavelengths of 390 and 460 nm, respectively, using a microplate reader. The IC50 values were determined by the GraphPad Prism 6 program based on a sigmoidal dose − response equation, and the inhibition rates were calculated using the fluorescence intensity readings of the tested wells in comparison to those of the control wells.

[10] = 37 °C, 30 min, read-out: HDAC2 (IC50)

T2 sequence (Q92769 whole entry): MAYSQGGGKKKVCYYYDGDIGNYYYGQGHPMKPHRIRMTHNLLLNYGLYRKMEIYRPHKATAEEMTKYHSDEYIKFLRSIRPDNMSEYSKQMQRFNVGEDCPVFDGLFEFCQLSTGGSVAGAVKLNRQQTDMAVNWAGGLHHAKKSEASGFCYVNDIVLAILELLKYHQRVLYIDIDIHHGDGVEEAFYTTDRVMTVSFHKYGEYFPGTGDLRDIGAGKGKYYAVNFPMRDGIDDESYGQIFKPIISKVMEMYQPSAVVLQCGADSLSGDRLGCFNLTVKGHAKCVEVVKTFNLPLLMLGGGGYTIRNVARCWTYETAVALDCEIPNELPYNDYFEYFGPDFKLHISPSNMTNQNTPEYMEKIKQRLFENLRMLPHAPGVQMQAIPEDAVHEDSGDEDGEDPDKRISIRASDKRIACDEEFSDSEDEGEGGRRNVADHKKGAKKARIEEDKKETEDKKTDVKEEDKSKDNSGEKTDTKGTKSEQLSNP

| SMILES | inhibition at 1 µM ([5]; Homo sapiens) | IC50 [7] | IC50 [9, 10] | other results |
| --- | --- | --- | --- | --- |
| CNCCNCc1cccc(-c2nc(Nc3cccc(OCCCCCCC(=O)NO)c3)c(C)c(-c3ccnc4[nH]ccc34)n2)c1 [CH-1] | 97% | 3.71 ± 0.11 nM |  | tumour volume / tumour growth versus vehicle [1]: significantly inhibited tumour growth; also recorded: significantly reduced; also recorded: significant antitumour activity; IC50 [2]: < 1000 nM; IC50 [3]: 950 nM; IC50 [4]: 710 nM; IC50 ([5]; Homo sapiens, DU-145, 72 h, read-out: DU145 cell proliferation IC50): 90 nM; inhibitory activity on DU145 cells relative to vorinostat ([5]; ratio of IC50 values): five times stronger; IC50 [6]: 680 nM; IC50 [8]: 430 nM; IC50 [9]: 4.07 ± 0.25 nM |
| CNCCNCc1cccc(-c2nc(Nc3cccc(OCCCCCCC(=O)NO)c3)c(C)c(-c3c(C)noc3C)n2)c1 [CH-2] | 93% | 5.38 ± 0.54 nM | 8.33 ± 1.05 nM |  |
| CNCCNCc1cccc(-c2nc(Nc3cccc(OCCCCCCC(=O)NO)c3)c(C)c(-c3cccnc3)n2)c1 [CH-3] | 96% | 10.6 ± 0.93 nM | 5.83 ± 0.41 nM |  |
| CNCCNCc1cccc(-c2nc(Nc3cccc(OCCCCCCC(=O)NO)c3)c(C)c(-c3cc4cccc(OC)c4[nH]3)n2)c1 [CH-4] | 92% | 25.5 ± 1.12 nM | 9.18 ± 0.17 nM |  |
| CNCCNCc1cccc(-c2nc(Nc3cccc(OCCCCCCC(=O)NO)c3)c(C)c(-c3cc4ccccc4s3)n2)c1 [CH-5] | 85% | 30.1 ± 2.02 nM | 17.3 ± 1.96 nM |  |
| CNCCNCc1cccc(-c2nc(Cl)c(C)c(Nc3cccc(OCCCCCCC(=O)NO)c3)n2)c1 [CH-6] | 86% | 37.4 ± 1.65 nM | 13 ± 1.25 nM |  |
| CNCCNCc1cccc(-c2nc(Nc3cccc(OCCCCCCC(=O)NO)c3)c(C)c(Oc3ccccc3)n2)c1 [CH-7] | 81% | 58.5 ± 3.21 nM | 24.8 ± 1.53 nM |  |
| CNC[C@@H](O)COc1ccc(Cl)c(-c2nc(-c3c(C)noc3C)c(C)c(N3CC4(CCN(C(=O)OC)CC4)C3)n2)c1 [EZM2302, reference compound] | < 50% |  |  | HDAC2 (IC50, nM) ([9]; 37 °C, 30 min): no inhibition |
| O=C(CCCCCCC(=O)Nc1ccccc1)NO [vorinostat, reference compound] |  |  |  | CARM1 (IC50, nM) [7]: no inhibitory effect; also recorded: no inhibition |
